Reference: the NIST ThermoML archive (doi:10.1021/acs.jced.6b00121)
± gives the expanded uncertainty stated by the source.

Assay: xn = mol fraction of the nth substance listed
Settings: 100 kPa, Liquid; for mass density: Vibrating tube method; for viscosity: Falling or rolling sphere viscometry

CCCCCCCCCCC [undecane] + CCCCCO
Settings | mass density [kg/m3] | viscosity [mPa·s]
323.15 K, x1 = 0.0999 | 778.15 ± 1.6 | –
323.15 K, x1 = 0.2 | 766.37 ± 1.6 | –
323.15 K, x1 = 0.3026 | 756.27 ± 1.5 | –
323.15 K, x1 = 0.4001 | 748.09 ± 1.5 | –
323.15 K, x1 = 0.5022 | 740.84 ± 1.5 | –
323.15 K, x1 = 0.5976 | 734.98 ± 1.5 | –
323.15 K, x1 = 0.6984 | 729.62 ± 1.5 | –
323.15 K, x1 = 0.801 | 724.97 ± 1.5 | –
323.15 K, x1 = 0.8822 | 721.69 ± 1.5 | –
323.15 K, x1 = 1 | 718.11 ± 1.4 | –
328.15 K, x1 = 0.0999 | 774.23 ± 1.6 | 1.336 ± 0.018
328.15 K, x1 = 0.2 | 762.42 ± 1.5 | 1.142 ± 0.015
328.15 K, x1 = 0.3026 | 752.3 ± 1.5 | 0.989 ± 0.013
328.15 K, x1 = 0.4001 | 744.13 ± 1.5 | 0.895 ± 0.012
328.15 K, x1 = 0.5022 | 736.88 ± 1.5 | 0.828 ± 0.011
328.15 K, x1 = 0.5976 | 731.04 ± 1.5 | 0.776 ± 0.01
328.15 K, x1 = 0.6984 | 725.7 ± 1.5 | 0.742 ± 0.01
328.15 K, x1 = 0.801 | 721.07 ± 1.5 | 0.714 ± 0.01
328.15 K, x1 = 0.8822 | 717.84 ± 1.4 | 0.702 ± 0.009
328.15 K, x1 = 1 | 714.39 ± 1.4 | 0.692 ± 0.009
333.15 K, x1 = 0.0999 | 770.26 ± 1.6 | 1.2 ± 0.016
333.15 K, x1 = 0.2 | 758.42 ± 1.5 | 1.035 ± 0.014
333.15 K, x1 = 0.3026 | 748.29 ± 1.5 | 0.903 ± 0.012
333.15 K, x1 = 0.4001 | 740.12 ± 1.5 | 0.825 ± 0.011
333.15 K, x1 = 0.5022 | 732.89 ± 1.5 | 0.767 ± 0.01
333.15 K, x1 = 0.5976 | 727.07 ± 1.5 | 0.723 ± 0.01
333.15 K, x1 = 0.6984 | 721.76 ± 1.5 | 0.694 ± 0.009
333.15 K, x1 = 0.801 | 717.15 ± 1.4 | 0.67 ± 0.009
333.15 K, x1 = 0.8822 | 713.96 ± 1.4 | 0.659 ± 0.009
333.15 K, x1 = 1 | 710.68 ± 1.4 | 0.651 ± 0.009
338.15 K, x1 = 0.0999 | 766.24 ± 1.6 | 1.082 ± 0.015
338.15 K, x1 = 0.2 | 754.37 ± 1.5 | 0.94 ± 0.013
338.15 K, x1 = 0.3026 | 744.23 ± 1.5 | 0.827 ± 0.011
338.15 K, x1 = 0.4001 | 736.07 ± 1.5 | 0.763 ± 0.01
338.15 K, x1 = 0.5022 | 728.86 ± 1.5 | 0.714 ± 0.01
338.15 K, x1 = 0.5976 | 723.06 ± 1.5 | 0.675 ± 0.009
338.15 K, x1 = 0.6984 | 717.77 ± 1.4 | 0.652 ± 0.009
338.15 K, x1 = 0.801 | 713.2 ± 1.4 | 0.63 ± 0.008
338.15 K, x1 = 0.8822 | 710.06 ± 1.4 | 0.621 ± 0.008
338.15 K, x1 = 1 | 706.95 ± 1.4 | 0.615 ± 0.008
343.15 K, x1 = 0.0999 | 762.15 ± 1.5 | 0.979 ± 0.013
343.15 K, x1 = 0.2 | 750.25 ± 1.5 | 0.857 ± 0.012
343.15 K, x1 = 0.3026 | 740.12 ± 1.5 | 0.76 ± 0.01
343.15 K, x1 = 0.4001 | 731.98 ± 1.5 | 0.708 ± 0.009
343.15 K, x1 = 0.5022 | 724.77 ± 1.5 | 0.666 ± 0.009
343.15 K, x1 = 0.5976 | 719 ± 1.5 | 0.633 ± 0.008
343.15 K, x1 = 0.6984 | 713.75 ± 1.4 | 0.613 ± 0.008
343.15 K, x1 = 0.801 | 709.22 ± 1.4 | 0.594 ± 0.008
343.15 K, x1 = 0.8822 | 706.13 ± 1.4 | 0.587 ± 0.008
343.15 K, x1 = 1 | 703.22 ± 1.4 | 0.58 ± 0.008
348.15 K, x1 = 0.0999 | 758.01 ± 1.5 | 0.889 ± 0.012
348.15 K, x1 = 0.2 | 746.09 ± 1.5 | 0.784 ± 0.011
348.15 K, x1 = 0.3026 | 735.95 ± 1.5 | 0.701 ± 0.009
348.15 K, x1 = 0.4001 | 727.83 ± 1.5 | 0.659 ± 0.009
348.15 K, x1 = 0.5022 | 720.65 ± 1.5 | 0.624 ± 0.008
348.15 K, x1 = 0.5976 | 714.91 ± 1.4 | 0.595 ± 0.008
348.15 K, x1 = 0.6984 | 709.7 ± 1.4 | 0.578 ± 0.008
348.15 K, x1 = 0.801 | 705.21 ± 1.4 | 0.561 ± 0.008
348.15 K, x1 = 0.8822 | 702.19 ± 1.4 | 0.556 ± 0.007
348.15 K, x1 = 1 | 699.47 ± 1.4 | 0.549 ± 0.007
353.15 K, x1 = 0.0999 | 753.8 ± 1.5 | 0.81 ± 0.011
353.15 K, x1 = 0.2 | 741.87 ± 1.5 | 0.72 ± 0.01
353.15 K, x1 = 0.3026 | 731.74 ± 1.5 | 0.649 ± 0.009
353.15 K, x1 = 0.4001 | 723.64 ± 1.5 | 0.615 ± 0.008
353.15 K, x1 = 0.5022 | 716.49 ± 1.4 | 0.585 ± 0.008
353.15 K, x1 = 0.5976 | 710.78 ± 1.4 | 0.56 ± 0.007
353.15 K, x1 = 0.6984 | 705.61 ± 1.4 | 0.545 ± 0.007
353.15 K, x1 = 0.801 | 701.17 ± 1.4 | 0.531 ± 0.007
353.15 K, x1 = 0.8822 | 698.22 ± 1.4 | 0.528 ± 0.007
353.15 K, x1 = 1 | 695.72 ± 1.4 | 0.522 ± 0.007
358.15 K, x1 = 0.0999 | 749.51 ± 1.5 | 0.744 ± 0.01
358.15 K, x1 = 0.2 | 737.58 ± 1.5 | 0.663 ± 0.009
358.15 K, x1 = 0.3026 | 727.46 ± 1.5 | 0.602 ± 0.008
358.15 K, x1 = 0.4001 | 719.38 ± 1.5 | 0.577 ± 0.008
358.15 K, x1 = 0.5022 | 712.26 ± 1.4 | 0.551 ± 0.007
358.15 K, x1 = 0.5976 | 706.59 ± 1.4 | 0.528 ± 0.007
358.15 K, x1 = 0.6984 | 701.47 ± 1.4 | 0.517 ± 0.007
358.15 K, x1 = 0.801 | 697.1 ± 1.4 | 0.504 ± 0.007
358.15 K, x1 = 0.8822 | 694.22 ± 1.4 | 0.502 ± 0.007
358.15 K, x1 = 1 | 691.96 ± 1.4 | 0.497 ± 0.007
363.15 K, x1 = 0.0999 | 745.17 ± 1.5 | 0.68 ± 0.009
363.15 K, x1 = 0.2 | 733.23 ± 1.5 | 0.614 ± 0.008
363.15 K, x1 = 0.3026 | 723.13 ± 1.5 | 0.56 ± 0.007
363.15 K, x1 = 0.4001 | 715.08 ± 1.4 | 0.542 ± 0.007
363.15 K, x1 = 0.5022 | 708 ± 1.4 | 0.519 ± 0.007
363.15 K, x1 = 0.5976 | 702.37 ± 1.4 | 0.5 ± 0.007
363.15 K, x1 = 0.6984 | 697.3 ± 1.4 | 0.49 ± 0.007
363.15 K, x1 = 0.801 | 692.99 ± 1.4 | 0.48 ± 0.006
363.15 K, x1 = 0.8822 | 690.22 ± 1.4 | 0.48 ± 0.006
363.15 K, x1 = 1 | 688.18 ± 1.4 | 0.475 ± 0.006
